Like-named read-outs stand apart in the source and are kept apart here.
Columns and labels:
Type in all cases: in vivo
wild-type tomato = assay: Fruition rate of wild-type tomato according to blooming period of treatment; settings: 1 mM
Protocol: To test the effect of a style-specific RNase inhibitor in a practical cultivating environment, the style-specific RNase of the present invention was treated to the wild-type tomato that was cultivated in a greenhouse for research (located in Taegu Catholic University, Kyungsan city, Kyungsangpukdo, Republic of korea). In the present invention, the experiment was performed under the environmental condition that can keep the wild-type tomato, a representative plant having gametophytic self-incompatibility, a single species genetically.
To determine the treatment period of a style-specific RNase inhibitor, the inhibitor was treated at the early blooming period (budding formation period˜prior to fill blooming), the middle blooming period (full blooming) and the late blooming period (1 day after full blooming˜falling period of petal) respectively. The inhibitors, ZnSO4 and CuSO4 were then added with 1 mM (about 288 ppm) and 1 mM (about 250 ppm) respectively at 9˜11 a.m., when pollination of plant occurs most actively. Fruition rate was investigated, and the results of 4 times repeated experiments for 25 blooming periods (reproductive organ containing a stamen, a stigma, a petal, etc.) in each experiment were shown in Table 3 with the statistic value.

Fuji apple [1] = assay: Fruition rate of Fuji apple according to blooming period of treatment; settings: 1 mM with siloxane spreader 0.0335%
Protocol: To test the effect of a style-specific RNase inhibitor of the present invention in a practical cultivating environment, the style-specific RNase of the present invention was treated to Fuji apple that was cultivated in a greenhouse for research (located in Cheongsong-gun, Kyungsangpukdo, Republic of Korea). In the present invention, the experiment was performed under the environmental condition that can keep the Fuji apple, a representative plant having gametophytic self-incompatibility, a single species genetically. To determine the treatment period of a style-specific RNase inhibitor, the inhibitor was treated at the early blooming period (budding formation period˜prior to full blooming), the middle blooming period (full blooming) and the late blooming period (1 day after full blooming˜falling period of petal) respectively. A composition, which was manufactured by mixing the spreader of siloxane class (brand name: silhouette, Dongbu precision chemical company, Korea) with the inhibitor to the concentration of 0.0335%, was treated under the same condition of the Example 5-1, and the results were shown in Table 5.

Fuji apple [2] = settings: for Fruition rate: siloxane spreader 0.0335%, 4 days before full blooming; for concentration in which harmful effect of a medicine occurred: in vivo
Protocol: To investigate the fruition rate and harmful effect of a medicine according to the concentration of style-specific RNase inhibitors, ZnSO4 and CuSO4, style-specific RNase inhibitors of the present invention, were treated to Fuji apple with various concentration in 4 days before full blooming.
Furthermore, to maximize the efficiency of the style-specific RNase inhibitor of the present invention as fruition control agents, ZnSO4 or CuSO4 was mixed with the spreader of siloxane class (brand name silhouette, Dongbu precision chemical company, Korea) at 0.0335%, and treated to the Fuji apple.

[3] = test system: wild-type tomato and Fuji apple; settings: for the highest concentration not showing harmful effects of a medicine: in vivo; for the lowest concentration showing inhibiting effect: treated at the early blooming period
Protocol: Moreover, to investigate preferable concentration of treatment of the regulation composition for gametophytic self-incompatibility of the present invention, […] ppm CuSO4 and ZnSO4 were treated to wild-type tomato and Fuji apple at the early blooming period and the harmful effects of a medicine and fruition rates were investigated (see FIGS. 6 and 7). Since absorption rate of the regulation composition for gametophytic self-incompatibility of the present invention can be increased by treating it with a spreader in cultivating fruit trees, the CuSO4 and ZnSO4 were treated with a spreader by a method of spraying on the fruit trees at a specific period, that is, the early blooming period. Thus, it was shown that fruits and plants that are pollinated by self-pollen could be acquired by the treatment of a specific concentration of CuSO4 and ZnSO4 in wild-type tomato and Fuji apple without harmful effects of the medicine. From the results, it can be concluded that an inhibitor composition of a style-specific RNase of the present invention is effective in inhibition of a style-specific RNase without respect to species, and preferable concentration of CuSO4, which is treated at the early blooming period, is at 100˜700 ppm and preferable concentration of ZnSO4 is at 100˜800 ppm. Furthermore, very high pollination rate, without harmful effects of a medicine, could be achieved by spraying the inhibitor composition for gametophytic self-incompatibility of the present invention, which was mixed with the desirable amount of spreader according to the manufacturers' instruction. Among the spreaders, the spreader of hexaconazole class, siloxane class and alkylaryl polyethoxylate class is preferable to achieve high fruition rate. The preferable concentration of the inhibitor composition for gametophytic self-incompatibility of the present invention was shown in table 1. When CuSO4 is used as an effective component of the style-specific RNase inhibitor as shown in the table 1, if the concentration of CuSO4 is below 100 ppm, it is difficult to achieve a stable fruition rate over 70% because it cannot inhibit RNase activity appropriately, on the other hand, if the concentration of CuSO4 is over 700 ppm, it is not economical because it can induce harmful effects of a medicine. Furthermore, when ZnSO4 is used as an effective component of the style-specific RNase inhibitor, if the concentration of ZnSO4 is below 100 ppm, it is difficult to achieve a stable fruition rate over 70% because it cannot inhibit RNase activity appropriately, on the other hand, if the concentration of ZnSO4 is over 800 ppm, it is not economical because it can induce harmful effects of a medicine.

SMILES	Fruition rate (wild-type tomato; 1 day after full blooming)	Fruition rate (wild-type tomato; 1 day before blooming)	Fruition rate (wild-type tomato; 2 days after full blooming)	Fruition rate (wild-type tomato; 2 days before blooming)	Fruition rate (wild-type tomato; 3 days before blooming)	Fruition rate (wild-type tomato; 4 days before blooming)	Fruition rate (wild-type tomato; 5 days before blooming)	Fruition rate (wild-type tomato; 6 days before blooming)	Fruition rate (wild-type tomato; 7 days before blooming)	Fruition rate (wild-type tomato; full blooming)	Fruition rate (Fuji apple [1]; 1 day after full blooming)	Fruition rate (Fuji apple [1]; 1 day before blooming)	Fruition rate (Fuji apple [1]; 2 days after full blooming)	Fruition rate (Fuji apple [1]; 2 days before blooming)	Fruition rate (Fuji apple [1]; 3 days before blooming)	Fruition rate (Fuji apple [1]; 4 days before blooming)	Fruition rate (Fuji apple [1]; 5 days before blooming)	Fruition rate (Fuji apple [1]; full blooming)	Fruition rate (Fuji apple [2]; 20 ppm)	Fruition rate (Fuji apple [2]; 40 ppm)	also measured
O=S(=O)([O-])[O-].[Cu+2] [CuSO4]	0	0	0	0	>37%	>74%	>86%	>91%	>91%	0	0	0	0	>24%	>70%	>86%	>91%	0	0%	0%	Fruition rate (Fuji apple [2]; 60 ppm): 11%; Fruition rate (Fuji apple [2]; 80 ppm): 39%; Fruition rate (Fuji apple [2]; 100 ppm): 70%; Fruition rate (Fuji apple [2]; 200 ppm): 76%; Fruition rate (Fuji apple [2]; 300 ppm): 88%; Fruition rate (Fuji apple [2]; 400 ppm): 85%; Fruition rate (Fuji apple [2]; 500 ppm): 77%; Fruition rate (Fuji apple [2]; 600 ppm): 73%; Fruition rate (Fuji apple [2]; 700 ppm): 73%; Fruition rate (Fuji apple [2]; 800 ppm): 52%; Fruition rate (Fuji apple [2]; 900 ppm): 31%; Fruition rate (Fuji apple [2]; 1000 ppm): 21%; Fruition rate (Fuji apple [2]; 1100 ppm): 11%; Fruition rate (Fuji apple [2]; 1200 ppm): 0%; Fruition rate (Fuji apple [2]; 1300 ppm): 0%; Fruition rate (Fuji apple [2]; 1400 ppm): 0%; Fruition rate (Fuji apple [2]; 1500 ppm): 0%; concentration in which harmful effect of a medicine occurred (Fuji apple [2]): ≥ 800 ppm; the highest concentration not showing harmful effects of a medicine [3]: 700 ppm; the lowest concentration showing inhibiting effect [3]: 100 ppm
O=S(=O)([O-])[O-].[Zn+2] [ZnSO4]	0	0	0	0	>30%	>71%	>83%	>90%	>92%	0	0	0	0	>32%	>71%	>93%	>92%	0	0%	5%	Fruition rate (Fuji apple [2]; 60 ppm): 17%; Fruition rate (Fuji apple [2]; 80 ppm): 36%; Fruition rate (Fuji apple [2]; 100 ppm): 72%; Fruition rate (Fuji apple [2]; 200 ppm): 79%; Fruition rate (Fuji apple [2]; 300 ppm): 93%; Fruition rate (Fuji apple [2]; 400 ppm): 88%; Fruition rate (Fuji apple [2]; 500 ppm): 85%; Fruition rate (Fuji apple [2]; 600 ppm): 84%; Fruition rate (Fuji apple [2]; 700 ppm): 74%; Fruition rate (Fuji apple [2]; 800 ppm): 70%; Fruition rate (Fuji apple [2]; 900 ppm): 44%; Fruition rate (Fuji apple [2]; 1000 ppm): 27%; Fruition rate (Fuji apple [2]; 1100 ppm): 9%; Fruition rate (Fuji apple [2]; 1200 ppm): 0%; Fruition rate (Fuji apple [2]; 1300 ppm): 0%; Fruition rate (Fuji apple [2]; 1400 ppm): 0%; Fruition rate (Fuji apple [2]; 1500 ppm): 0%; concentration in which harmful effect of a medicine occurred (Fuji apple [2]): ≥ 900 ppm; the highest concentration not showing harmful effects of a medicine [3]: 800 ppm; the lowest concentration showing inhibiting effect [3]: 100 ppm
